In publication PMC10449633 (Nature Chemical Biology, 2023):
Values joined by “and” are separate entries in the source; they are usually repeats but may differ in a detail not shown here. Equal entries are not always repeated. Where two headings read alike, the source gives them in different places. Numbered stars: 1 amine (or outer) side, 2 acyl side, 3 side chain; on linkers, the order of the positions; unused ones are H or OH. Square brackets hold non-standard residues; d marks the D form. Peptide text beside a SMILES is read from it. NMeTrp(1-(4-Br-benzyl)) = CN[C@@H](Cc1cn(Cc2ccc(Br)cc2)c2ccccc12)C(=O)O; X3 = CCn1cc(C[C@@H](C(=O)[*:2])N(C)[*:1])c2ccccc21; Butanoyl(2R-oxy,4-CN) = N#CCC[C@@H](O)C(=O)O; Abu(4,4,4-F3) = N[C@@H](CC(F)(F)F)C(=O)O; NMeL = CN[C@@H](CC(C)C)C(=O)O; NMeA = CN[C@@H](C)C(=O)O

How the values were obtained:
[1] = tested on: SARS-CoV-2; assay type: cell-based; conditions: 48 h
[2] = tested on: SARS-CoV-2; conditions: infected 48 h
[3] = tested on: SARS-CoV-2; assay type: cell-based; conditions: 48 h; remark: listed apart in the source
[4] = target: T1, Sec61 (Homo sapiens, UniProt P61619); assay: cell-based; conditions: for IC50: 24 h, range in brackets
T1 construct: endogenous in cells
T1 sequence (P60059 whole entry): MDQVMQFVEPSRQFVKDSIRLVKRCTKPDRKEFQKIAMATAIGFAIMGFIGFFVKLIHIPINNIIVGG
T1 sequence (P61619 whole entry): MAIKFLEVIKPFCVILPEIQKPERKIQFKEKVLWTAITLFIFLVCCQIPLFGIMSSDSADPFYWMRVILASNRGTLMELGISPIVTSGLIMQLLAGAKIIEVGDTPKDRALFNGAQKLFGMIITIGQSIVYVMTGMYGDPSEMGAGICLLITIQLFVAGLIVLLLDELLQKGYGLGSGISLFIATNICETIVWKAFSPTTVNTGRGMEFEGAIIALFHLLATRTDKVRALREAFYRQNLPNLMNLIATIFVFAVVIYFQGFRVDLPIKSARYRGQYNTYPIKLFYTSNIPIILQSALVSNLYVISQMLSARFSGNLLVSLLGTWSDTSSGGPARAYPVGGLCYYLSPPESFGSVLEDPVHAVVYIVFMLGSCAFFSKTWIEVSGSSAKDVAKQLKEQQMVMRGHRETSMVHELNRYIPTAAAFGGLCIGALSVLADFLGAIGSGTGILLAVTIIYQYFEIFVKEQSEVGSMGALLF
T1 sequence (P60468 whole entry, further chain): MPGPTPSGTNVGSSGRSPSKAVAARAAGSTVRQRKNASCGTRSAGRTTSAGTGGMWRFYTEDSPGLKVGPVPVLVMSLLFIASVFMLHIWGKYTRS

[5] = tested on: collagen antibody-induced arthritis in BALB/c mice; assay: Anticollagen antibody-induced arthritis model, clinical scores; assay type: in vivo, mouse; conditions: individual mice

SMILES: CC[C@H]1CN2CCc3cc(OC)c(OC)cc3[C@@H]2C[C@@H]1C[C@H]1NCCc2cc(OC)c(OC)cc21 [Emetine, reference compound]
- infectious virus particle production ([1]; 1.11 uM): 632.456 TCID50 per milliliter
- infectious virus particle production ([1]; 3.33 uM): 632.456 TCID50 per milliliter and 430.887 TCID50 per milliliter
- infectious virus particle production ([1]; 10 uM): 632.456 TCID50 per milliliter
- cell viability ([2]; 0.01 uM): 70.4141 and 72.6149 and 69.2712
- cell viability ([2]; 0.04 uM): 77.6184 and 78.5394 and 67.5514
- cell viability ([2]; 0.12 uM): 91.8387 and 89.8998 and 85.3326
- cell viability ([2]; 0.37 uM): 98.5387 and 106.593 and 107.116
- cell viability ([2]; 1.11 uM): 85.9306 and 97.0439 and 95.1349
- cell viability ([2]; 3.33 uM): 86.5239 and 91.9706 and 91.8345
- cell viability ([2]; 10 uM): 89.2076 and 95.1684 and 93.0072
- viral genome copy number ([3]; 0.01 uM): 24100000 and 12600000 and 15400000
- viral genome copy number ([3]; 0.04 uM): 19500000 and 12600000 and 14500000
- viral genome copy number ([3]; 0.12 uM): 9690000 and 6770000 and 10700000
- viral genome copy number ([3]; 1.11 uM): 81000 and 73500 and 71100
- viral genome copy number ([3]; 3.33 uM): 85400 and 62200 and 61600
- viral genome copy number ([3]; 10 uM): 58200 and 54400 and 71200

SMILES: CCn1cc(C[C@H]2C(=O)N[C@@H](CC(C)C)C(=O)N(C)[C@@H](C)C(=O)O[C@H](CCC#N)C(=O)N[C@@H](CC(F)(F)F)C(=O)N(C)[C@@H](CC(C)C)C(=O)N[C@@H](CC(F)(F)F)C(=O)N2C)c2ccccc21 [KZR-9508] (cyclo(L[NMeA][Butanoyl(2R-oxy,4-CN)][Abu(4,4,4-F3)][NMeL][Abu(4,4,4-F3)][X3]))
- selectivity compared with KZR-8445 [4]: greater selectivity
- IC50 ([4]; HER3 signal peptide-GLuc, read-out: IC50 (nM) HER3): 103 nM and ~100 nM
- IC50 ([4]; PD1 signal peptide-GLuc, read-out: IC50 (nM) PD1): 388 nM
- loss of potency relative to KZR-8445 ([4]; four of five GLuc reporters): 10–20 fold
- IC50 ([4]; full-length IL-2-GLuc, read-out: IC50 (nM) IL-2): 1420 nM
- IC50 ([4]; full-length TNFα-GLuc, read-out: IC50 (nM) TNFα): 908 nM
- IC50 ([4]; prolactin signal peptide-GLuc, read-out: IC50 (nM) Prolactin): 25600 nM

SMILES: CC(C)C[C@@H]1NC(=O)[C@H](Cc2cn(Cc3ccc(Br)cc3)c3ccccc23)N(C)C(=O)[C@H](CC(F)(F)F)NC(=O)[C@H](CC(C)C)N(C)C(=O)[C@H](CC(F)(F)F)NC(=O)[C@@H](CCC#N)OC(=O)[C@H](C)N(C)C1=O [KZR-508445] (cyclo(L[NMeA][Butanoyl(2R-oxy,4-CN)][Abu(4,4,4-F3)][NMeL][Abu(4,4,4-F3)][NMeTrp(1-(4-Br-benzyl))]))
- Clinical score ([5]; 2.5 mg/kg IV QODx3, day 13): 9 (2×) and 6 and 11 (2×) and 4 and 12 and 8 and 13 and 7
- Clinical score ([5]; 2.5 mg/kg IV QODx3, day 14): 9 (2×) and 5 and 11 (2×) and 2 and 12 and 10 and 13 and 7
- Clinical score ([5]; 5 mg/kg IV QODx3, day 13): 11 (2×) and 5 and 10 and 4 (3×) and 8 and 7 and 9
- Clinical score ([5]; 5 mg/kg IV QODx3, day 14): 12 and 5 and 8 (2×) and 4 (2×) and 3 and 6 and 9 and 11
- Clinical score ([5]; 10 mg/kg IV QODx3, day 13): 4 and 6 (3×) and 9 (2×) and 5 (2×) and 3 and 7
- Clinical score ([5]; 10 mg/kg IV QODx3, day 14): 5 (3×) and 7 (2×) and 9 and 6 and 8 (2×) and 3
- Clinical score ([5]; 20 mg/kg IV QODx3, day 4): 1 (4×) and 2 (2×)
- Clinical score ([5]; 20 mg/kg IV QODx3, day 13): 1 (2×) and 3 (2×) and 2 and 0 and 4
- Clinical score ([5]; 20 mg/kg IV QODx3, day 14): 1 (2×) and 3 (3×) and 2 and 0
- Clinical score ([5]; 20 mg/kg IV QW, day 13): 0 and 2 and 9 and 6 (2×) and 7 (2×) and 8 (2×) and 4
- Clinical score ([5]; 20 mg/kg IV QW, day 14): 0 and 2 and 9 (2×) and 7 (2×) and 6 and 8 (2×) and 5

SMILES: CCn1cc(C[C@H]2C(=O)N[C@@H](CC(C)C)C(=O)N(C)[C@@H](C)C(=O)O[C@H](CCC#N)C(=O)N[C@@H](CC(F)(F)F)C(=O)N(C)[C@@H](CC(C)C)C(=O)N[C@@H](CC(F)(F)F)C(=O)N2C)c2ccccc21 [KZR-0509508] (cyclo(L[NMeA][Butanoyl(2R-oxy,4-CN)][Abu(4,4,4-F3)][NMeL][Abu(4,4,4-F3)][X3]))
- GLuc reporter raw signal (replicates) ([4]; HER3, Concentration 0.32): 2917200 and 2920600 and 2895100
- GLuc reporter raw signal (replicates) ([4]; HER3, Concentration 40): 2324600 and 2421500 and 2482600
- GLuc reporter raw signal (replicates) ([4]; HER3, Concentration 200): 860870 and 901980 and 850270
- GLuc reporter raw signal (replicates) ([4]; HER3, Concentration 1000): 128950 and 127590 and 122180
- GLuc reporter raw signal (replicates) ([4]; HER3, Concentration 5000): 21107 and 19954 and 21458
- GLuc reporter raw signal (replicates) ([4]; HER3, Concentration 25000): 18661 and 19673 and 20195
- GLuc reporter raw signal (replicates) ([4]; IL2, Concentration 0.32): 2617800 and 2680800 and 2713900
- GLuc reporter raw signal (replicates) ([4]; IL2, Concentration 8): 2560100 and 2737500 and 2592900
- GLuc reporter raw signal (replicates) ([4]; IL2, Concentration 40): 2448500 and 2433000 and 2516300
- GLuc reporter raw signal (replicates) ([4]; IL2, Concentration 200): 2434300 and 2250900 and 2386200
- GLuc reporter raw signal (replicates) ([4]; IL2, Concentration 1000): 1366100 and 1331100 and 1340300
- GLuc reporter raw signal (replicates) ([4]; IL2, Concentration 5000): 148660 and 137160 and 137620
- GLuc reporter raw signal (replicates) ([4]; IL2, Concentration 25000): 72344 and 71940 and 72808
- GLuc reporter raw signal (replicates) ([4]; PD1, Concentration 0.32): 1140200 and 1151600 and 1079300
- GLuc reporter raw signal (replicates) ([4]; PD1, Concentration 8): 1090400 and 1094000 and 1069700
- GLuc reporter raw signal (replicates) ([4]; PD1, Concentration 40): 1001600 and 1054300 and 960410
- GLuc reporter raw signal (replicates) ([4]; PD1, Concentration 200): 810270 and 826880 and 727000
- GLuc reporter raw signal (replicates) ([4]; PD1, Concentration 1000): 298160 and 288700 and 294700
- GLuc reporter raw signal (replicates) ([4]; PD1, Concentration 5000): 19269 and 21595 and 21074
- GLuc reporter raw signal (replicates) ([4]; PD1, Concentration 25000): 12135 and 12576 and 11044
- GLuc reporter raw signal (replicates) ([4]; Prolactin, Concentration 0.32): 8343700 and 8651000 and 8237500
- GLuc reporter raw signal (replicates) ([4]; Prolactin, Concentration 8): 8140000 and 8910000 and 8852700
- GLuc reporter raw signal (replicates) ([4]; Prolactin, Concentration 40): 8482300 and 8946000 and 7991900
- GLuc reporter raw signal (replicates) ([4]; Prolactin, Concentration 200): 8151300 and 9013100 and 8191700
- GLuc reporter raw signal (replicates) ([4]; Prolactin, Concentration 1000): 7614900 and 8029100 and 7622300
- GLuc reporter raw signal (replicates) ([4]; Prolactin, Concentration 5000): 6257700 and 6043200 and 6299800
- GLuc reporter raw signal (replicates) ([4]; Prolactin, Concentration 25000): 4760600 and 4742900 and 4623400
- GLuc reporter raw signal (replicates) ([4]; TNFa, Concentration 0.32): 157540 and 153990 and 156290
- GLuc reporter raw signal (replicates) ([4]; TNFa, Concentration 8): 177590
- GLuc reporter raw signal (replicates) ([4]; TNFa, Concentration 40): 174140 and 177930 and 180980
- GLuc reporter raw signal (replicates) ([4]; TNFa, Concentration 200): 165100 and 188550 and 172890
- GLuc reporter raw signal (replicates) ([4]; TNFa, Concentration 1000): 101080 and 103620 and 107580
- GLuc reporter raw signal (replicates) ([4]; TNFa, Concentration 5000): 30162 and 28185 and 30634
- GLuc reporter raw signal (replicates) ([4]; TNFa, Concentration 25000): 17845 and 17474 and 16301

SMILES: C[C@@H]1C[C@H]2[C@@H]3CCC4=CC(=O)C=C[C@]4(C)[C@@]3(F)[C@@H](O)C[C@]2(C)[C@@]1(O)C(=O)CO [dexamethasone, reference compound]
- Clinical score ([5]; 1.5mg/kg IP QODx3, day 4): 1 (5×) and 2 (4×) and 3
- Clinical score ([5]; 1.5mg/kg IP QODx3, day 5): 3 (5×) and 4 (2×) and 2 and 5 (2×)
- Clinical score ([5]; 1.5mg/kg IP QODx3, day 6): 4 (2×) and 6 (6×) and 2 and 5
- Clinical score ([5]; 1.5mg/kg IP QODx3, day 7): 6 (4×) and 4 and 7 (3×) and 5 and 8
- Clinical score ([5]; 1.5mg/kg IP QODx3, day 10): 6 (3×) and 7 (2×) and 9 (2×) and 5 and 11 and 8
- Clinical score ([5]; 1.5mg/kg IP QODx3, day 11): 7 (3×) and 6 (2×) and 8 (2×) and 4 and 9 and 10
- Clinical score ([5]; 1.5mg/kg IP QODx3, day 12): 7 (4×) and 6 (2×) and 9 (3×) and 3
- Clinical score ([5]; 1.5mg/kg IP QODx3, day 13): 7 (3×) and 5 and 6 (2×) and 8 (2×) and 3 and 9
- Clinical score ([5]; 1.5mg/kg IP QODx3, day 14): 6 (2×) and 5 and 8 (2×) and 7 (2×) and 3 and 10 and 9
